Target: T1, human GlyT1c transporter (Homo sapiens, UniProt P48067)
T1 construct: expressed in transfected cells; host or cells: CHO cells (recombinant; line hGlyT1c_5_CHO is named for the uptake assay)
T1 sequence (P48067 1-706): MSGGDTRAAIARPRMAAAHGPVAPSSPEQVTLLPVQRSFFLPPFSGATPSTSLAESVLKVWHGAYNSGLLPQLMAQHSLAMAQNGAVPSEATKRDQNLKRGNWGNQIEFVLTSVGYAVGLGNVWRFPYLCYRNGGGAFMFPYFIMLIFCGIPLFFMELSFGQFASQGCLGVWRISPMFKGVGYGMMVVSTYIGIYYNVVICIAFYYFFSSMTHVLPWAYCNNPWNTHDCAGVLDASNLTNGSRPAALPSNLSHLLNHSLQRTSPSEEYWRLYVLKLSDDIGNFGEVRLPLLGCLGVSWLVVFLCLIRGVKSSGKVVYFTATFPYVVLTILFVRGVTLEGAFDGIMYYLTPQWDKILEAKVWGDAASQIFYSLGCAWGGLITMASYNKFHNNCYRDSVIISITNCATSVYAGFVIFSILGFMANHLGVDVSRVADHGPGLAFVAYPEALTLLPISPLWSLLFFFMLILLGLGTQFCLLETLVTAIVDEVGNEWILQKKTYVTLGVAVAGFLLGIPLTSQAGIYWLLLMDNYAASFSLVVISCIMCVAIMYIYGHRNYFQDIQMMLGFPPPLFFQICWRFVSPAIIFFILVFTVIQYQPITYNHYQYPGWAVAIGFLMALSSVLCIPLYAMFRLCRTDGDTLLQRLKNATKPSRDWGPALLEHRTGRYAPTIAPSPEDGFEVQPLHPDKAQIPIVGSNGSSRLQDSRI
Test: Radioligand binding assay using recombinant CHO cell membranes expressing human GlyT1
From the text: 2. Radioligand binding assays using recombinant CHO cell membranes expressing human GlyT1: […]

[1] = radioligand binding to human GlyT1c transporter-expressing membranes
[2] = radioligand binding, recombinant CHO cell membranes expressing human GlyT1c

Ki [1] [nM] | Ki [2] [nM] | SMILES
≤ 100 |  | Cn1cnc(S(=O)(=O)N2C[C@@H](Nc3cccc(OC(F)(F)F)c3)[C@H](c3ncccc3F)C2)c1 (relative stereo) [Example 799, Trans-4-(3-fluoropyridin-2-yl)-1-[(1-methyl-1H-imidazol-4-yl)sulfonyl]-N-[3-(trifluoromethoxy)phenyl]pyrrolidin-3-amine]
≤ 10 |  | Cn1cnc(S(=O)(=O)N2C[C@@H](Nc3cccc(OCC(F)(F)F)c3)[C@H](c3ncccc3F)C2)c1 (relative stereo) [Example 800, Trans-4-(3-fluoropyridin-2-yl)-1-[(1-methyl-1H-imidazol-4-yl)sulfonyl]-N-[3-(2,2,2-trifluoroethoxy)phenyl]pyrrolidin-3-amine]
≤ 1000 |  | Cn1cnc(S(=O)(=O)N2C[C@@H](Nc3cccc(F)c3)[C@H](c3ncccc3F)C2)c1 (relative stereo) [Example 805, Trans-N-(3-fluorophenyl)-4-(3-fluoropyridin-2-yl)-1-[(1-methyl-1H-imidazol-4-yl)sulfonyl]pyrrolidin-3-amine]
≤ 100 |  | CCCCCCN[C@@H]1CN(S(=O)(=O)c2cn(C)nn2)C[C@H]1c1ncccc1F (relative stereo) [Example 811, Trans-4-(3-fluoropyridin-2-yl)-N-hexyl-1-[(1-methyl-1H-1,2,3-triazol-4-yl)sulfonyl]pyrrolidin-3-amine]
 | ≤ 1000 | Cn1cnc(S(=O)(=O)N2C[C@@H](OCCNCC(F)(F)F)[C@H](c3ccc(F)cc3)C2)c1 (relative stereo) [Example 814, 2,2,2-trifluoro-N-[2-({trans-4-(4-fluorophenyl)-1-[(1-methyl-1H-imidazol-4-yl)sulfonyl]pyrrolidin-3-yl}oxy)ethyl]ethanamine]
 | ≤ 100 | Cn1cnc(S(=O)(=O)N2C[C@@H](Nc3ccc(F)c(Cl)c3)[C@H](C3CCCCO3)C2)c1 (relative stereo) [Example 815, Trans-N-(3-chloro-4-fluorophenyl)-1-[(1-methyl-1H-imidazol-4-yl)sulfonyl]-4-(tetrahydro-2H-pyran-2-yl)pyrrolidin-3-amine]
 | ≤ 10 | Cn1cnc(S(=O)(=O)N2C[C@@H](Nc3cccc(OCC(F)(F)F)c3)[C@H](C3CCCCO3)C2)c1 (relative stereo) [Example 816, Trans-1-[(1-methyl-1H-imidazol-4-yl)sulfonyl]-4-(tetrahydro-2H-pyran-2-yl)-N-[3-(2,2,2-trifluoroethoxy)phenyl]pyrrolidin-3-amine]
 | ≤ 10 | Cn1cc(S(=O)(=O)N2C[C@@H](NCc3ccc(C(F)(F)F)cc3Cl)[C@H](c3ncccc3F)C2)nn1 (relative stereo) [Example 818, Trans-N-[2-chloro-4-(trifluoromethyl)benzyl]-4-(3-fluoropyridin-2-yl)-1-[(1-methyl-1H-1,2,3-triazol-4-yl)sulfonyl]pyrrolidin-3-amine]
 | ≤ 100 | Cn1cnc(S(=O)(=O)N2C[C@@H](Nc3cccc(OCC(F)(F)F)c3)[C@H](C3CCCO3)C2)c1 (relative stereo) [Example 819, Trans-1-[(1-methyl-1H-imidazol-4-yl)sulfonyl]-4-(tetrahydrofuran-2-yl)-N-[3-(2,2,2-trifluoroethoxy)phenyl]pyrrolidin-3-amine]
 | ≤ 1000 | Cn1cnc(S(=O)(=O)N2C[C@@H](Nc3ccc(F)c(Cl)c3)[C@H](C3CCCO3)C2)c1 (relative stereo) [Example 824, Trans-N-(3-chloro-4-fluorophenyl)-1-[(1-methyl-1H-imidazol-4-yl)sulfonyl]-4-(tetrahydrofuran-2-yl)pyrrolidin-3-amine]
 | ≤ 1000 | Cn1cnc(S(=O)(=O)N2C[C@@H](Nc3cccc(C(F)(F)F)c3)[C@H](C3CCOC3)C2)c1 (relative stereo) [Example 827, trans-1-[(1-methyl-1H-imidazol-4-yl)sulfonyl]-4-(tetrahydrofuran-3-yl)-N-[3 - (trifluoromethyl)phenyl]pyrrolidin-3-amine]
 | ≤ 10000 | Cc1cccc(N[C@@H]2CN(S(=O)(=O)c3cn(C)cn3)C[C@H]2C2CCOC2)c1 (relative stereo) [Example 828, trans-1-[(1-methyl-1H-imidazol-4-yl)sulfonyl]-N-(3-methylphenyl)-4-(tetrahydrofuran-3-yl)pyrrolidin-3-amine]
 | ≤ 10000 | Cn1cnc(S(=O)(=O)N2C[C@@H](Nc3cccc(Cl)c3)[C@H](C3CCOC3)C2)c1 (relative stereo) [Example 829, trans-N-(3-chlorophenyl)-1-[(1-methyl-1H-imidazol-4-yl)sulfonyl]-4-(tetrahydrofuran-3-yl)pyrrolidin-3-amine]
 | ≤ 10000 | Cn1cnc(S(=O)(=O)N2C[C@@H](Nc3ccc(F)c(Cl)c3)[C@H](C3CCOC3)C2)c1 (relative stereo) [Example 830, trans -N-(3-chloro-4-fluorophenyl)-1-[(1-methyl-1H-imidazol-4-yl)sulfonyl] -4-(tetrahydrofuran-3 - yl)pyrrolidin-3-amine]
 | ≤ 1000 | Cn1cnc(S(=O)(=O)N2C[C@@H](Nc3ccc(F)c(OC(F)(F)F)c3)[C@H](C3CCOC3)C2)c1 (relative stereo) [Example 831, trans -N-[4-fluoro-3-(trifluoromethoxy)phenyl]-1-[(1-methyl-1 H-imidazol-4-yl)sulfonyl] -4-(tetrahydrofuran-3-yl)pyrrolidin-3-amine]
 | ≤ 1000 | Cn1cnc(S(=O)(=O)N2C[C@@H](Nc3ccc(F)c(C(F)(F)F)c3)[C@H](C3CCOC3)C2)c1 (relative stereo) [Example 832, trans-N-[4-fluoro-3-(trifluoromethyl)phenyl]-1-[(1-methyl-1H-imidazol-4-yl)sulfonyl]-4-(tetrahydrofuran-3-yl)pyrrolidin-3-amine]
 | ≤ 10000 | Cn1cnc(S(=O)(=O)N2C[C@@H](Nc3ccc(Cl)c(C(F)(F)F)c3)[C@H](C3CCOC3)C2)c1 (relative stereo) [Example 833, trans-N-[4-chloro-3-(trifluoromethyl)phenyl]-1-[(1-methyl-1H-imidazol-4-yl)sulfonyl]-4-(tetrahydrofuran-3-yl)pyrrolidin-3-amine]
 | ≤ 1000 | Cn1cnc(S(=O)(=O)N2C[C@@H](Nc3cccc(OCC(F)(F)F)c3)[C@H](C3CCOC3)C2)c1 (relative stereo) [Example 834, trans-1-[(1-methyl-1H-imidazol-4-yl)sulfonyl]-4-(tetrahydrofuran-3-yl)-N-[3-(2,2,2-trifluoroethoxy)phenyl]pyrrolidin-3-amine]
 | ≤ 1000 | Cn1cnc(S(=O)(=O)N2C[C@@H](Nc3cccc(OC(F)(F)F)c3)[C@H](C3CCOC3)C2)c1 (relative stereo) [Example 835, trans-1-[(1-methyl-1H-imidazol-4-yl)sulfonyl]-4-(tetrahydrofuran-3-yl)-N-[3-(trifluoromethoxy)phenyl]pyrrolidin-3-amine]
 | ≤ 10 | Cn1cc(S(=O)(=O)N2C[C@@H](Nc3cccc(OCC(F)(F)F)c3)[C@H](c3ccc(F)cc3)C2)nn1 (relative stereo) [Example 836, trans-4-(4-fluorophenyl)-1-[(1-methyl-1H-1,2,3-triazol-4-yl)sulfonyl]-N-[3-(2,2,2-trifluoroethoxy)phenyl]pyrrolidin-3-amine]
 | ≤ 100 | Cn1cnc(S(=O)(=O)N2C[C@@H](Nc3ccc(F)c(C(F)(F)F)c3)[C@H](C3CCCO3)C2)c1 (relative stereo) [Example 843, Trans-N-[4-fluoro-3-(trifluoromethyl)phenyl]-1-[(1-methyl-1H-imidazol-4-yl)sulfonyl]-4-(tetrahydrofuran-2-yl)pyrrolidin-3-amine]
 | ≤ 1000 | Cn1cnc(S(=O)(=O)N2C[C@@H](Nc3cc(C(F)(F)F)c(Cl)cn3)[C@H](C3CCCO3)C2)c1 (relative stereo) [Example 844, 5-Chloro-N-[trans-1-[(1-methyl-1H-imidazol-4-yl)sulfonyl]-4-(tetrahydrofuran-2-yl)pyrrolidin-3-yl]-4-(trifluoromethyl)pyridin-2-amine]
 | ≤ 1000 | Cc1cc(N[C@@H]2CN(S(=O)(=O)c3cn(C)cn3)C[C@H]2C2CCCO2)ccc1F (relative stereo) [Example 845, Trans-N-(4-fluoro-3-methylphenyl)-1-[(1-methyl-1H-imidazol-4-yl)sulfonyl]-4-(tetrahydrofuran-2-yl)pyrrolidin-3-amine]
 | ≤ 100 | Cn1cnc(S(=O)(=O)N2C[C@@H](Nc3ccc(F)c(C(F)(F)F)c3)[C@H](C3CCCCO3)C2)c1 (relative stereo) [Example 846, Trans-N-[4-fluoro-3-(trifluoromethyl)phenyl]-1-[(1-methyl-1H-imidazol-4-yl)sulfonyl]-4-(tetrahydro-2H-pyran-2-yl)pyrrolidin-3-amine]

SMILES | Ki [1] [nM] | Ki [2] [nM]
Cn1cnc(S(=O)(=O)N2C[C@@H](NCc3ccc(C(F)(F)F)cc3Cl)[C@H](C3CCCO3)C2)c1 (relative stereo) [Example 822, Trans-N-[2-chloro-4-(trifluoromethyl)benzyl]-1-[(1-methyl-1H-imidazol-4-yl)sulfonyl]-4-(tetrahydrofuran-2-yl)pyrrolidin-3-amine] |  | ≤ 1000

Source: patent EP2970215B1, “PYRROLIDINE DERIVATIVES, PHARMACEUTICAL COMPOSITIONS CONTAINING THEM, AND THEIR USE IN THERAPY” (AbbVie Deutschland GmbH & Co. KG, priority 2013, dated 2014)
